Test results: ChEMBL document CHEMBL2021758, “Synthesis of indolizidinone analogues of cytotoxic alkaloids: monocyclic precursors are also active” (2012)
Active and inactive are the calls of the source. The calls are words filed in the database; no cut-off is given here.

Columns and labels:
SH-SY5Y [1] = assay: Cytotoxicity against human SH-SY5Y cells assessed as reduction of cell viability at 30 uM after 48 hrs; format: functional
SH-SY5Y [2] = assay: Cytotoxicity against human SH-SY5Y cells assessed as reduction of cell viability at 10 uM after 24 hrs; format: functional, cell-based
MCF7 [3] = assay: Induction of morphological changes in human MCF7 cells assessed as change in cell shape at 30 uM after 48 hrs; format: functional, cell-based
SH-SY5Y [4] = assay: Induction of morphological changes in human SH-SY5Y cells assessed as change in cell shape at 30 uM after 48 hrs; format: functional, cell-based
SH-SY5Y [5] = assay: Induction of morphological changes in human SH-SY5Y cells assessed as change in perimeter of cell at 30 uM after 48 hrs; format: functional, cell-based
MCF7 [6] = assay: Cytotoxicity against human MCF7 cells assessed as reduction of cell viability at 30 uM after 48 hrs; format: functional
MCF7 [7] = assay: Induction of morphological changes in human MCF7 cells assessed as change in perimeter of cell at 30 uM after 48 hrs; format: functional, cell-based
MCF7 [8] = assay: Induction of morphological changes in human MCF7 cells assessed as change in volume of cell at 30 uM after 48 hrs; format: functional, cell-based
MCF7 [9] = assay: Cytotoxicity against human MCF7 cells assessed as reduction of cell viability at 10 uM after 24 hrs; format: functional, cell-based
SH-SY5Y [10] = assay: Induction of morphological changes in human SH-SY5Y cells assessed as change in volume of cell at 30 uM after 48 hrs; format: functional, cell-based
SH-SY5Y [11] = assay: Cytotoxicity against human SH-SY5Y cells assessed as reduction of cell viability at 20 uM after 24 hrs; format: functional, cell-based
MCF7 [12] = assay: Cytotoxicity against human MCF7 cells assessed as reduction of cell viability at 20 uM after 24 hrs; format: functional, cell-based
SH-SY5Y [13] = assay: Induction of morphological changes in human SH-SY5Y cells assessed as increase in volume of nucleus at 30 uM after 6 hrs; format: functional, cell-based
MCF7 [14] = assay: Induction of morphological changes in human MCF7 cells assessed as cell swelling at 30 uM after 6 hrs; format: functional, cell-based
SH-SY5Y [15] = assay: Induction of morphological changes in human SH-SY5Y cells assessed as increase in refringency of the nucleoli at 30 uM after 6 hrs; format: functional, cell-based
MCF7 [16] = assay: Induction of morphological changes in human MCF7 cells assessed as increase in volume of nucleus at 30 uM after 6 hrs; format: functional, cell-based
MCF7 [17] = assay: Induction of morphological changes in human MCF7 cells assessed as increase in refringency of the nucleoli at 30 uM after 6 hrs; format: functional, cell-based
MCF7 [18] = assay: Induction of morphological changes in human MCF7 cells assessed as cytoplasm vacuolization at 30 uM after 6 hrs; format: functional, cell-based
SH-SY5Y [19] = assay: Induction of morphological changes in human SH-SY5Y cells assessed as cytoplasm vacuolization at 30 uM after 6 hrs; format: functional, cell-based
SH-SY5Y [20] = assay: Induction of morphological changes in human SH-SY5Y cells assessed as cell swelling at 30 uM after 6 hrs; format: functional, cell-based
MCF7 [21] = assay: Induction of morphological changes in human MCF7 cells at 30 uM after 24 hrs; format: functional, cell-based

For `O=C1C(c2ccccc2)=C(c2ccc(-c3ccccc3)cc2)C[C@H]2C[C@@H](O)CN12`, the Activity (SH-SY5Y [1]) was >70%, the Activity (SH-SY5Y [2]) was “Active” and the Activity (MCF7 [3]) was “Active”. For the same molecule, the Activity (SH-SY5Y [4]) was “Active”, the Activity (SH-SY5Y [5]) was “Active” and the Activity (MCF7 [6]) was >70%. For the same molecule, the Activity (MCF7 [7]) was “Active”, the Activity (MCF7 [8]) was “Active” and the Activity (MCF7 [9]) was “Active”. The Activity (SH-SY5Y [10]) was “Active”, the Activity (SH-SY5Y [11]) was “Active” and the Activity (MCF7 [12]) was “Active”.

For `COc1ccc(C2=C(c3ccccc3)C(=O)N3C[C@H](O)C[C@H]3C2)cc1`, the Activity (SH-SY5Y [1]) was “Active”, the Activity (SH-SY5Y [2]) was “Active” and the Activity (MCF7 [6]) was “Active”. For the same molecule, the Activity (MCF7 [9]) was “Active”, the Activity (SH-SY5Y [11]) was “Active” and the Activity (MCF7 [12]) was “Active”.

`COc1ccc(C2=C(c3ccccc3)C(=O)N3C[C@H](O)C[C@@H]3C2)cc1` was tested, and the Activity (SH-SY5Y [2]) was “Active”, the Activity (MCF7 [6]) was “Active” and the Activity (MCF7 [9]) was “Active”. For the same molecule, the Activity (SH-SY5Y [11]) was “Active” and the Activity (MCF7 [12]) was “Active”.

In the case of `O=C1C(c2ccccc2)=C(c2ccccc2)C[C@@H]2C[C@@H](O)CN12`, the Activity (SH-SY5Y [1]) is reported as “Active”, the Activity (SH-SY5Y [2]) is reported as “Active” and the Activity (MCF7 [6]) is reported as “Active”. The Activity (MCF7 [9]) was “Active”, the Activity (SH-SY5Y [11]) was “Active” and the Activity (MCF7 [12]) was “Active”.

`O=C1C(c2ccccc2)=C(c2ccc(-c3ccccc3)cc2)C[C@@H]2C[C@@H](O)CN12` was tested, and the Activity (SH-SY5Y [1]) was >70%, the Activity (SH-SY5Y [2]) was “Active” and the Activity (MCF7 [6]) was >70%. The Activity (MCF7 [9]) was “Active”, the Activity (SH-SY5Y [11]) was “Active” and the Activity (MCF7 [12]) was “Active”.

`Cn1cccc1C1=C(c2ccccc2)C(=O)N2C[C@H](O)C[C@@H]2C1` was tested, and the Activity (SH-SY5Y [1]) was “Active”, the Activity (SH-SY5Y [2]) was “Active” and the Activity (MCF7 [6]) was “Active”. For the same molecule, the Activity (MCF7 [9]) was “Active”, the Activity (SH-SY5Y [11]) was “Active” and the Activity (MCF7 [12]) was “Active”.

`O=C1C(c2ccccc2)=C(c2ccc(Br)cc2)C[C@H]2C[C@@H](O)CN12` was tested, and the Activity (SH-SY5Y [2]) was “Active”, the Activity (MCF7 [6]) was “Active” and the Activity (MCF7 [9]) was “Active”. For the same molecule, the Activity (SH-SY5Y [11]) was “Active” and the Activity (MCF7 [12]) was “Active”.

`O=C1C(c2ccccc2)=C(c2ccc(Br)cc2)C[C@@H]2C[C@@H](O)CN12` was tested, and the Activity (SH-SY5Y [1]) was “Active”, the Activity (SH-SY5Y [2]) was “Active” and the Activity (MCF7 [6]) was “Active”. For the same molecule, the Activity (MCF7 [9]) was “Active”, the Activity (SH-SY5Y [11]) was “Active” and the Activity (MCF7 [12]) was “Active”.

In the case of `Cn1cccc1C1=C(c2ccccc2)C(=O)N2C[C@H](O)C[C@H]2C1`, the Activity (SH-SY5Y [1]) is reported as “Active”, the Activity (SH-SY5Y [2]) is reported as “Active” and the Activity (MCF7 [6]) is reported as “Active”. The Activity (MCF7 [9]) was “Active”, the Activity (SH-SY5Y [11]) was “Active” and the Activity (MCF7 [12]) was “Active”.

`O=C(C[C@@H]1C[C@@H](O)CN1C(=O)Cc1ccccc1)c1ccc(-c2ccccc2)cc1` was tested, and the Activity (SH-SY5Y [2]) was “Active” and the Activity (MCF7 [9]) was “Active”.

For `O=C(C[C@H]1C[C@@H](O)CN1C(=O)Cc1ccccc1)c1ccc(-c2ccccc2)cc1`, the Activity (SH-SY5Y [13]) was “Active”, the Activity (MCF7 [14]) was “Active” and the Activity (SH-SY5Y [15]) was “Active”. The Activity (SH-SY5Y [2]) was “Active”, the Activity (MCF7 [16]) was “Active” and the Activity (MCF7 [17]) was “Active”. The Activity (MCF7 [18]) was “Active”, the Activity (SH-SY5Y [19]) was “Active” and the Activity (SH-SY5Y [20]) was “Active”. For the same molecule, the Activity (MCF7 [21]) was “Active” and the Activity (MCF7 [9]) was “Active”.

For `O=C1C(c2ccccc2)=C(c2ccccc2)C[C@H]2C[C@@H](O)CN12`, the Activity (SH-SY5Y [1]) was “Active”, the Activity (SH-SY5Y [2]) was “Active” and the Activity (MCF7 [6]) was “Active”. The Activity (MCF7 [9]) was “Active”, the Activity (SH-SY5Y [11]) was “Active” and the Activity (MCF7 [12]) was “Active”.
